The results in this text go back to paper PMC6009861, “Development of terphenyl-2-methyloxazol-5(4H)-one derivatives as selective reversible MAGL inhibitors” (Journal of Enzyme Inhibition and Medicinal Chemistry, 2017).

The target in test [1] is T1, MAGL (Homo sapiens, UniProt Q99685).
T1 construct: purchased Cayman Chemical
T1 sequence (Q99685 1-303): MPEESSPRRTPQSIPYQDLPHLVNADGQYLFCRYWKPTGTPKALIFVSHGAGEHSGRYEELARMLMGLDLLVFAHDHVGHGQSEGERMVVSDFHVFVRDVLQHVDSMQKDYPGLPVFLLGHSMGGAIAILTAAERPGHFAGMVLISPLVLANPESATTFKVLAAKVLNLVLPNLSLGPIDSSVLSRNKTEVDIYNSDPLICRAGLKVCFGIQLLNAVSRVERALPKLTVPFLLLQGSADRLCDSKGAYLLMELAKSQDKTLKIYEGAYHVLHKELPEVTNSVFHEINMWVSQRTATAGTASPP
As to the kind of experiment: MAGL-inhibition assay (4-NPA substrate, absorbance 405 nm). The test is classed as biochemical. As to the method: Human recombinant MAGL, and 4-nitrophenylacetate substrate (4-NPA) were from Cayman Chemical. The IC50 values for compounds were generated in 96-well microtiter plates. The MAGL reaction was conducted at RT at a final volume of 200 µL in 10 mM Tris buffer, pH 7.2, containing 1 mM EDTA. A total of 150 µL of 4-NPA 133.3 µM (final concentration = 100 µM) was added to 10 µL of DMSO containing the appropriate amount of compound. The reaction was initiated by the addition of 40 µL of MAGL (11 ng/well) in such a way that the assay was linear over 30 min. […] After the reaction had proceeded for 30 min, absorbance values were then measured by using a VictorX3 PerkinElmer instrument at 405 nm. Two reactions were also run: one reaction containing no compounds and the second one containing neither inhibitor nor enzyme. IC50 values were derived from experimental data using the Sigmoidal dose–response fitting of GraphPad Prism software as reported earlier.

In the next test the target is T2, human FAAH (Homo sapiens, UniProt O00519).
T2 sequence (O00519 1-579): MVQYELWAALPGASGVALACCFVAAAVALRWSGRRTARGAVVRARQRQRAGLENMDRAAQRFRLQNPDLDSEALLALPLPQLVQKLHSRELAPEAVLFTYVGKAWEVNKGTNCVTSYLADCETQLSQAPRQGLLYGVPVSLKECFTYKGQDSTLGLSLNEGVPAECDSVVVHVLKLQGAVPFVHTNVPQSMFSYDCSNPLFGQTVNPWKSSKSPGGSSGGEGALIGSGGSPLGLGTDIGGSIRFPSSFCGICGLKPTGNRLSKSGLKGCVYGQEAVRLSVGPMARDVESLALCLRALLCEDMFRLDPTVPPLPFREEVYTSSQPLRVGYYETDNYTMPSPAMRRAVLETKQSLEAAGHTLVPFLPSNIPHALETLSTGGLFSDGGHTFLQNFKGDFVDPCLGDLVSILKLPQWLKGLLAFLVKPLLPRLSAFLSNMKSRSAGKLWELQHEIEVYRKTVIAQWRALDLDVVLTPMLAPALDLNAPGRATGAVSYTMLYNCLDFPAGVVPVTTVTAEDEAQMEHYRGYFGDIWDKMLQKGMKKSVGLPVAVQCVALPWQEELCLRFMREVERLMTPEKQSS
Nature of the test: FAAH inhibition assay (AMC arachidonoyl amide, fluorescence). The test is classed as biochemical. The conditions noted are these: AMC arachidonoyl amide 10 µM, 30 min, RT. The procedure:
The IC50 values for compounds were generated in 96-well microtiter plates. The FAAH reaction was conducted at RT at a final volume of 200 µL in 125 mM Tris buffer, pH 9.0, containing 1 mM EDTA. A total of 150 µL of AMC arachidonoyl amide 13.3 µM (final concentration = 10 µM) was added to 10 µL of DMSO containing the appropriate amount of compound. The reaction was initiated by the addition of 40 µL of FAAH (0.9 µg/well) in such a way that the assay was linear over 30 min. After the reaction had proceeded for 30 min, fluorescence values were then measured by using a VictorX3 PerkinElmer instrument at an excitation wavelength of 340 nm and an emission of 460 nm. Two reactions were also run: one reaction containing no compounds and the second one containing neither inhibitor nor enzyme. IC50 values were derived from experimental data using the Sigmoidal dose − response fitting of GraphPad Prism software as reported earlier. To remove possible false-positive results, for each compound concentration, a blank analysis was carried out, and the final fluorescence results were obtained detracting the fluorescence produced by the presence of all the components except FAAH in the same conditions.

Test [2] has as its target T1, MAGL. As to the kind of experiment: MAGL preincubation assay. The test is classed as biochemical. The note with it: preincubation 0, 30 and 60 min with hMAGL. As to the method:
The MAGL reaction was conducted at RT at a final volume of 200 µL in 10 mM Tris buffer, pH 7.2, containing 1 mM EDTA. A total of 150 µL of MAGL (11 ng/well) was added to 10 µL of DMSO containing the appropriate amount of compound. After 0, 30, and 60 min of incubation time the reaction was initiated by the addition of 40 µL of 4-NPA 500 µM. The enzyme activity was then measured according to the procedure described above.

The target in test [3] is T1, MAGL. As to the kind of experiment: MAGL dilution assay. It is filed as biochemical. The note with it: 10 µM incubated 60 min, then 40x dilution (final 0.25 µM). The procedure:
The enzyme (880 ng in 75 µL of Tris buffer, pH 7.2) was incubated during 60 min at RT with 5 µL of compound 20b (concentration of 10 µM in the mixture) dissolved in DMSO. The MAGL-inhibitor mixture was then diluted 40-fold with the buffer. After 15 min of incubation, the reaction was initiated on a 160 µL aliquot by the addition of 40 µL of 4-NPA 500 µM and the enzyme activity was measured according to the procedure described above.

Another test concerns OVCAR3. Nature of the test: Cell viability assay, OVCAR3. The test is classed as cell-based. The note with it: OVCAR-3; OVCAR3 human ovarian cancer cells, 96 h. The procedure:
(§1) COV318, OVCAR-3 (from ATCC) and hMSC (from AB Cell-Bio) were maintained at 37 °C in a humidified atmosphere containing 5% CO2 accordingly to the supplier. Normal (1.5 × 10^4) and tumor (5 × 10^2) cells were plated in 96-well culture plates. The day after seeding, vehicle or compounds were added at different concentrations to the medium. Compound was added to the cell culture at a concentration ranging from 200 to 0.02 µM. Cell viability was measured after 96 h according to the supplier (Promega, G7571) with a Tecan F200 instrument. IC50 values were calculated from logistical dose–response curves. Averages were obtained from three independent experiments, and error bars are standard deviations (n = 3).

Another test relates to CAOV3. As to the kind of experiment: Cell viability assay, CAOV3. It is filed as cell-based. The note with it: Caov-3; CAOV3 human ovarian cancer cells, 96 h.
Test [4] relates to noncancerous human mesenchymal stem cells (hMSC). As to the kind of experiment: Cell viability assay, hMSC. The test is classed as cell-based. The note with it: 96 h. As to the method: as §1

What is called IC50 is the midpoint of a concentration-inhibition curve. For the compound `COc1ccc(-c2ccc(-c3ccc(OC)cc3)c(/C=C3\N=C(C)OC3=O)c2)cc1` [Compound 20b, (Z)-4-{[4,4′′-Dimethoxy-(1,1′:4′,1′′-terphenyl)-2′-yl]methylene}-2-methyloxazol-5(4H)-one], the IC50 at MAGL [1] (human recombinant MAGL, 4-NPA 100 µM, 30 min, RT) is 0.348 ± 0.038 µM; on human FAAH, 36.1 ± 1.12 µM; with OVCAR3, 41.6 µM; in the test with CAOV3, 23.8 µM; in test [4], over 100 µM. In addition, the MAGL/FAAH selectivity at MAGL [1] (ratio of FAAH IC50 to MAGL IC50 (fold)) is listed as 104. On MAGL [2], the “Change of MAGL blocking ability (IC50) with preincubation time” value is reported as “did not show any significant increase”. Also, at MAGL [3], the “Inhibition mechanism in dilution assay” value is recorded as “reversible inhibition”.
